The text below walks through data of article PMC3517300 (Journal of neurochemistry, 2012).

Assay [1] deals with DAT. Particulars: raft-enriched fractions vs whole cells; ref Foster et al. 2008; cited from earlier work.
Assay [2] deals with unesterified cholesterol in HEK 293-hDAT cells. Briefly: Cholesterol quantification. In kind it is cell-based, human. The following applies: for reduction of cholesterol content compared with untreated cells: 30 min, 37°C.
For assay [3], the target named is human dopamine transporter (DAT WT) (Homo sapiens, UniProt Q01959). Nature of the assay: AMPH-induced DA efflux by RDEV, HEK 293-hDAT. In kind it is cell-based. The following applies: for effect on Km and Vmax of AMPH-induced DA efflux (RDEV) / effect on corrected efflux Vmax: WT; for effect on Km and Vmax of AMPH-induced DA efflux (RDEV): 5.0 mM mβCD or 25 µg/ml nystatin, 10 µM AMPH; for effect on corrected efflux Vmax: repletion with 200 µM sterol after 5.0 mM mβCD, or 25 µg/ml nystatin.

Assay [4] has as its target T1, W84L DAT mutant (Homo sapiens, UniProt Q01959, W84L).
T1 sequence (Q01959 1-620 W84L): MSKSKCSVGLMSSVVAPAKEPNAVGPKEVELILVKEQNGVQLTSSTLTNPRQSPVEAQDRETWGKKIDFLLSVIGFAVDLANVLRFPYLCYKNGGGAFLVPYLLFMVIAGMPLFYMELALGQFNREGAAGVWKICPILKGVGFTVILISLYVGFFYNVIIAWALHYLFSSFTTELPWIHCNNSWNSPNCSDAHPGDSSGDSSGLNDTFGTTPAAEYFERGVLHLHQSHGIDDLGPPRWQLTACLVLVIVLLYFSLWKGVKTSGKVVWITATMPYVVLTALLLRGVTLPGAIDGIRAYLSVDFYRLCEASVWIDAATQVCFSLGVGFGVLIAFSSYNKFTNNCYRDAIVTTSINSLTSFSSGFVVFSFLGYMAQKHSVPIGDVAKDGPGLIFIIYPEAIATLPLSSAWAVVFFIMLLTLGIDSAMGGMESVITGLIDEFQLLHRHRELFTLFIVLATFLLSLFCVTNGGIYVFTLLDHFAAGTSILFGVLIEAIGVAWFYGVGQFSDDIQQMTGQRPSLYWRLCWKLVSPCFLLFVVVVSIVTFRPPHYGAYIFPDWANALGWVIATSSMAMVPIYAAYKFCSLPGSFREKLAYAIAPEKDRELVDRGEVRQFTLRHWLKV
Nature of the assay: DA uptake by RDEV, W84L hDAT-HEK 293 cells. It counts as cell-based. The following applies: 2.5 mM mβCD or 25 µg/ml nystatin.

Assay [5] deals with T1, W84L DAT mutant. Nature of the assay: AMPH-induced DA efflux by RDEV, W84L hDAT-HEK 293 cells. In kind it is cell-based. The following applies: for effect on AMPH-induced DA efflux Km, Vmax (RDEV): 2.5 mM mβCD or 25 µg/ml nystatin, 10 µM AMPH.
The target in assay [6] is human DAT (LLC-PK-hDAT cells) (Homo sapiens, UniProt Q01959). Nature of the assay: AMPH-induced [^3H]DA efflux in LLC-PK-hDAT cells. In kind it is cell-based.
Assay [7] concerns hDAT surface expression in HEK-293 cells. Briefly: Surface biotinylation and immunoblot of DAT. Particulars: treatment with mβCD, nystatin, or repletion with cholesterol or desmosterol. In kind it is cell-based, human. Background: A western blot detects proteins with antibodies after separation by electrophoresis.
The subject of assay [8] is DAT in lipid rafts of HEK-293 hDAT cells. Nature of the assay: Sucrose density fractionation, DAT association with lipid rafts. It counts as cell-based, human. The following applies: 1% Brij; depletion/chelation or repletion of mβCD depleted cells.
For assay [9], the system named is cholesterol-depleted HuH7 hepatoma cells or hippocampal membranes. The following applies: within 1 hr; ref Vainio et al. 2006; Singh et al. 2009; cited from earlier work.

human DAT (LLC-PK-hDAT cells), sequence (Q01959 whole entry): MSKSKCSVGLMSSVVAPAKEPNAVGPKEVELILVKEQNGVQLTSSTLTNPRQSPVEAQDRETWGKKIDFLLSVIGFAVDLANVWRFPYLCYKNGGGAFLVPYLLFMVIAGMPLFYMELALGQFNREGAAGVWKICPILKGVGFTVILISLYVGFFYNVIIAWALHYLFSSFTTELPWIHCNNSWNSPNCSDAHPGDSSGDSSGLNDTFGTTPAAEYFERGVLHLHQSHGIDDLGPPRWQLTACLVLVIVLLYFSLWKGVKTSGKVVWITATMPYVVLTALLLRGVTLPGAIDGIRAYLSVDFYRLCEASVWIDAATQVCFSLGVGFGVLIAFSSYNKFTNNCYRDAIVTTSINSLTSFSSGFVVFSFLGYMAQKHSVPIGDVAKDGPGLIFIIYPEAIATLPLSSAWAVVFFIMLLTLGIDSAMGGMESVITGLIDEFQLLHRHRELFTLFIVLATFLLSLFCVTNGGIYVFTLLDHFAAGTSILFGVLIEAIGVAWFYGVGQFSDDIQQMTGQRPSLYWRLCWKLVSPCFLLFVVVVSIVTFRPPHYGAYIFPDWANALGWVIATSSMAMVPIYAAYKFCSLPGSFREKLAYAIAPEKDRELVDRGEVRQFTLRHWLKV
human dopamine transporter (DAT WT), sequence (Q01959 whole entry): as above

As to `NCCc1ccc(O)c(O)c1` [DA, dopamine], in assay [1], the “IC50 of DA competing for [^3H]CFT binding, rafts vs whole cells” value is “two-fold higher”.

Regarding methyl-β-cyclodextrin [mβCD], the entries for the “reduction of cholesterol content compared with untreated cells” value in assay [2] (2.5 mM) and in [2] (5.0 mM) were 39% and 63%, respectively. In addition, the “reduction in reverse transport (corrected efflux Vmax)” value in [3] (5.0 mM mβCD vs control, 37°C) is ~ 40%. The “effect on Km and Vmax of AMPH-induced DA efflux (RDEV)” value in [3] is reported as “large reduction”. Moreover, the “effect on DA uptake Vmax and Km (RDEV)” value in assay [4] was “enhanced uptake Vmax without altering Km”. Moreover, the “effect on Vmax ratio (incorporating the uptake correction)” value in assay [5] (2.5 mM mβCD) is reported as “rescued to that of DAT WT control”. In addition, the “effect on AMPH-induced DA efflux Km, Vmax (RDEV)” value in assay [5] is reported as “partial rescue of efflux Vmax”. Besides, the “AMPH-induced [^3H]DA efflux over basal levels” value in assay [6] (2.5 mM mβCD, 10 µM AMPH) is 122%; in assay [6] (5.0 mM mβCD, 10 µM AMPH), 115%. The “loss in efflux function” value in assay [6] (2.5 and 5.0 mM mβCD) is ~ 20%. The “changes in levels of DAT (total lysates and biotinylated surface fraction)” value in assay [7] was “no significant changes”. The “DAT distribution across sucrose gradient fractions (raft association)” value in assay [8] was “significant shift of DAT out of raft fractions 3–4 into denser fractions 7 and up”.

Regarding `C[C@@H]1[C@H](O)[C@@H](C)/C=C/C=C/CC/C=C/C=C/C=C/C=C/C(O[C@H]2O[C@H](C)[C@@H](O)[C@H](N)[C@@H]2O)CC2O[C@](O)(CC(O)C(O)CCC(O)CC(O)CC(O)CC(=O)O[C@H]1C)CC(O)C2C(=O)O` (some centres unmarked) [nystatin], the “change of overall content of cholesterol” value in [2] (25 µg/ml) is recorded as “did not change”. Besides, in [3], the “effect on Km and Vmax of AMPH-induced DA efflux (RDEV)” value is recorded as “no effect”; the “effect on corrected efflux Vmax” value is on record as “no significant change”. Also, the “effect on DA uptake Vmax and Km (RDEV)” value in [4] is “did not significantly change Vmax or Km”. Also, the “effect on AMPH-induced DA efflux Km, Vmax (RDEV)” value in assay [5] is “did not affect”. In assay [6] (nystatin treated cells, 10 µM AMPH), the “AMPH-induced [^3H]DA efflux over basal levels” value is 150%. In addition, the “changes in levels of DAT (total lysates and biotinylated surface fraction)” value in assay [7] is given as “no significant changes”. In addition, the “DAT distribution across sucrose gradient fractions (raft association)” value in assay [8] is “significant shift of DAT out of raft fractions 3–4 into denser fractions 7 and up”.

Take `CC(C)=CCC[C@@H](C)[C@H]1CC[C@H]2[C@@H]3CC=C4C[C@@H](O)CC[C@]4(C)[C@H]3CC[C@]12C` [desmosterol]: in assay [3], the “effect on corrected efflux Vmax” value is “indistinguishable from control values”. For the same compound, the “changes in levels of DAT (total lysates and biotinylated surface fraction)” value in assay [7] is given as “no significant changes”. Further, the “DAT distribution across sucrose gradient fractions (raft association)” value in assay [8] is “inefficient at restoring rafts”. In addition, the “increase in cholesterol after replenishment with desmosterol” value in [9] is reported as not above 10%.

As for `C[C@H](N)Cc1ccccc1` [AMPH, dextroamphetamine], the “[^3H]DA efflux over basal efflux” value in [6] (10 µM AMPH, control cells, 5 min, 25°C) was ~ 144%.

Take `CC(C)CCC[C@@H](C)[C@H]1CC[C@H]2[C@@H]3CC=C4C[C@@H](O)CC[C@]4(C)[C@H]3CC[C@]12C` [cholesterol]: the “effect on corrected efflux Vmax” value in assay [3] is “indistinguishable from control values”. The “changes in levels of DAT (total lysates and biotinylated surface fraction)” value in [7] was “no significant changes”. The “DAT distribution across sucrose gradient fractions (raft association)” value in assay [8] is given as “restored DAT association with low buoyant density fractions”.
